{"source": "patent US4812590A", "about": "“Carbamates of 4-hydroxyanisole as prodrugs for chemotherapy of melanoma” (priority 1987, dated 1989)", "key": {"[1]": {"experiment": "Determination of carbamate half-lives: conversion of carbamate to 4-methoxyphenol in phosphate buffer, HPLC", "assay_type": "physicochemical", "method": "[…] The resulting solution was heated at 37° while 20 μL samples were removed at intervals and injected directly into the HPLC injection port.\nUnreacted carbamate and 4-methoxyphenol concentrations were determined by HPLC analysis with a C-18 reverse phase column using a mobile phase of 87.5% pH 2.4 phosphoric acid and 12.5% acetonitrile. The UV detector was set at 220 nm. The half-life (t1/2) is the time required for 50% conversion of carbamate to 4-methoxyphenol. Compounds (1), (2) and (3) are the preferred prodrugs for the treatment of melanomas."}, "melanoma": {"test_system": "melanoma", "conditions": "cited from earlier work"}, "[2]": {"conditions": "after intra-arterial injection; cited from earlier work"}, "DNA synthesis": {"test_system": "DNA synthesis", "conditions": "cited from earlier work"}, "[3]": {"test_system": "melanoma cells that contain tyrosinase", "conditions": "Riley 1985; cited from earlier work"}, "pKa": {"experiment": "pKa", "assay_type": "physicochemical"}, "[4]": {"experiment": "Partition coefficient, octanol/pH 7.4 buffer", "assay_type": "physicochemical"}, "[5]": {"conditions": "pH 6.8, pH 6.8, 37° (Table I), read-out: t1/2"}, "[6]": {"conditions": "pH 7.4, pH 7.4 phosphate buffer, 37° (Table I), read-out: t1/2 (time required for 50% conversion of carbamate to 4-methoxyphenol)"}}, "note": "Read-outs that look alike come from different tables or passages of the source.", "data": [{"smiles": "COc1ccc(OC(=O)N(C)CCN(C)C)cc1", "values": [{"measurement": "half-life", "setting": "[1]; [5]", "result": 3.23, "unit": "h"}, {"measurement": "half-life", "setting": "[1]; [6]", "result": 0.9, "unit": "h"}]}, {"smiles": "CCNCCN(CC)C(=O)Oc1ccc(OC)cc1", "values": [{"measurement": "half-life", "setting": "[1]; [6]", "result": 2.38, "unit": "h"}]}, {"smiles": "COc1ccc(OC(=O)N(C)CCN)cc1", "values": [{"measurement": "half-life", "setting": "[1]; [6]", "result": 7.7, "unit": "h"}]}, {"smiles": "CNCCCN(C)C(=O)Oc1ccc(OC)cc1", "values": [{"measurement": "half-life", "setting": "[1]; [6]", "result": 24.1, "unit": "h"}]}, {"smiles": "COc1ccc(O)cc1", "note": "[4-Hydroxyanisole, 4-hydroxyanisole]", "values": [{"measurement": "results of subsequent studies", "setting": "melanoma; intra-arterial infusion", "result": "more promising results"}, {"measurement": "results of early clinical trials", "setting": "melanoma; intralesional injection or i.v. infusion", "result": "disappointing"}, {"measurement": "half-life in blood", "setting": "[2]", "result": 9, "unit": "min"}, {"measurement": "effect on DNA synthesis", "setting": "DNA synthesis", "result": "inhibits DNA synthesis"}, {"measurement": "oxidation by tyrosinase and toxicity to melanoma cells", "setting": "[3]", "result": "oxidized by tyrosinase to highly cytotoxic products and consequently is preferentially toxic to those melanoma cells that contain the enzyme"}]}, {"smiles": "COc1ccc(OC(=O)NCCCN)cc1.Cl", "note": "[(5), N-[3-Aminopropyl]carbamic acid 4-methoxyphenyl ester hydrochloride]", "values": [{"measurement": "half-life", "setting": "[1]; [6]", "result": 12, "unit": "h"}]}, {"smiles": "COc1ccc(OC(=O)NCCN)cc1", "note": "[(6)]", "values": [{"measurement": "half-life", "setting": "[1]; [6]", "result": 12.1, "unit": "h"}]}, {"smiles": "CNCCNC(=O)Oc1ccc(OC)cc1", "note": "[(7)]", "values": [{"measurement": "half-life", "setting": "[1]; [6]", "result": 12.4, "unit": "h"}]}, {"smiles": "CNCCN(C)C(=O)Oc1ccc(OC)cc1", "note": "[Compound IV]", "values": [{"measurement": "pKa", "setting": "pKa", "result": 8.88}, {"measurement": "half-life", "setting": "[1]; pH 7.4, phosphate buffer, pH 7.4 (37°), read-out: half-life of release of 4-hydroxyanisole", "result": 0.6, "unit": "h"}, {"measurement": "logD", "setting": "[4]", "result": -1.02}]}, {"smiles": "CNCCN(C)C(=O)Oc1ccc(OC)cc1", "note": "[drawing 8]", "values": [{"measurement": "half-life", "setting": "[1]; [5]", "result": 2.33, "unit": "h"}, {"measurement": "half-life", "setting": "[1]; [6]", "result": 0.605, "unit": "h"}]}]}
